Measured values taken from article PMC12249711, “Comprehensive Evaluation of 1H-Isoindole-1,3(2H)-Dione Derivatives: Pharmacokinetic Studies and Analgesic Potential in Various Pain Models” (International Journal of Molecular Sciences, 2025).

Assays:
Type in all cases: in vivo, Albino Swiss mice
mice [1] = test: Streptozotocin-induced diabetic neuropathy, von Frey test (tactile allodynia); conditions: diabetic (STZ) mice, 10 mg/kg i.p.; for Pain threshold after compound administration (von Frey): 30 min before the test; for Analgesic activity (von Frey): vs pre-drug threshold
Protocol: (§1) The induction of diabetes neuropathy in mice was achieved through the administration of streptozotocin (STZ), dissolved in PBS at a dose of 200 mg/kg in a constant volume of 0.1 mL/10 g of mouse body weight, intraperitoneally; (n = 50). Blood glucose levels were measured immediately prior to the administration of streptozotocin and 14 and 21 days following this administration in order to confirm the presence of hyperglycemia. For this purpose, 5 µL of blood was drawn from the tail vein of the mice using a strip glucose meter (AccuChek Active, Roche, Boulogne-Billancourt, France).
Furthermore, to assess the response to mechanical stimuli (i.e., tactile/mechanical) allodynia), the von Frey test was carried out with application of the electronic von Frey unit (Panlab, Cornellà de Llobregat, Spain) equipped with a fiber, the distal end of which was applied to the right hind paw of the mouse. The device automatically recorded the pressure force (in grams) applied until the paw withdrawal response occurred. In the absence of pain, an increase in the pressure value was observed. The force at which the animal withdrew its paw was considered the pain threshold for the mechanical stimulus. Measurements were taken before streptozotocin administration (in normoglycemic mice) and again 21 days later, both before and after compound administration, in diabetic mice (glucose level > 300 mg/dL) that had developed mechanical allodynia. On the day of the experiment, each mouse was placed in an observation chamber with a wire mesh bottom and was allowed to habituate for 1 h. After the habituation period, in order to obtain baseline values, each mouse was tested 3 times alternately in each hind paw, allowing at least 30 s between each measurement. Then, the mice were pretreated intraperitoneally with compound or vehicle, and 30 min later the animals were tested again and three measurements were taken, the mean of which was calculated to obtain the mean values after drug administration for each mouse. The anti-allodynic effect was defined as an increase in the pressure force value required to elicit a pain response, compared to the control group.

mice [2] = test: Formalin test; conditions: vs vehicle; for Reduction of pain reaction (licking duration), neurogenic phase: phase I (0–5 min); for Reduction of pain response, inflammatory phase: phase II (15–30 min)
Protocol: The pain reaction was induced by intraplantar (i.pl.) injection of 20 μL of 2.5% formalin solution into the right hind paw of the mouse (n = 136). […] Time (in seconds) spent on licking or biting the injected hind paw in selected intervals, 0–5 min (neurogenic phase) and 15–30 min (inflammatory phase), was measured in each group and was an indicator of nociceptive behavior. The procedure was based on the method described by with some modifications by.

mice [3] = test: Streptozotocin-induced diabetic neuropathy, hot plate test (thermal hyperalgesia); conditions: diabetic (STZ) mice, 10 mg/kg i.p.; for Analgesic activity (hot plate): vs pre-drug latency
Protocol: as §1
To assess increased sensitivity to thermal stimuli, we used a hot plate testing apparatus (Panlab/Harvard Apparatus, Cornellà de Llobregat, Spain), following the methodology originally described by. In this procedure, after determining the baseline pain response time, 30 min after drug administration, mice were placed on a hot plate maintained at 55 °C and monitored for pain-related behaviors such as licking their hind paws or jumping. To avoid potential damage to paw tissue, a time limit of 45 s was set.

| SMILES | Pain threshold after compound administration (von Frey) (mice [1]) | Analgesic activity (von Frey) (mice [1]) | Reduction of pain reaction (licking duration), neurogenic phase (mice [2]; 5 mg/kg i.p.) | Reduction of pain reaction (licking duration), neurogenic phase (mice [2]; 10 mg/kg i.p.) | Reduction of pain reaction (licking duration), neurogenic phase (mice [2]; 20 mg/kg i.p.) | Reduction of pain response, inflammatory phase (mice [2]; 5 mg/kg i.p.) | Reduction of pain response, inflammatory phase (mice [2]; 10 mg/kg i.p.) | Reduction of pain response, inflammatory phase (mice [2]; 20 mg/kg i.p.) | Pain response latency time after compound administration (hot plate, 55 °C) (mice [3]) | Analgesic activity (hot plate) (mice [3]) |
| --- | --- | --- | --- | --- | --- | --- | --- | --- | --- | --- |
| O=C1c2ccccc2C(=O)N1CC(O)CN1CCN(c2ccccc2)CC1 (centres unmarked) [Compound F1] | 4.28 ± 0.32 g | 48.6% | did not attenuate the nociceptive response | 44.9% | 62.7% | 37% | 66% | 90% | 25.59 ± 1.84 s | 56.6% |
| COc1ccccc1N1CCN(CC(O)CN2C(=O)c3ccccc3C2=O)CC1 (centres unmarked) [Compound F2] | 4.58 ± 0.29 g | 39.4% | did not attenuate the nociceptive response | 44.6% | 53% | 51% | 73% | 87% | 30.36 s | 49.33% |
| O=C1c2ccccc2C(=O)N1CC(O)CN1CCN(c2cccc(C(F)(F)F)c2)CC1 (centres unmarked) [Compound F3] | 5.21 ± 0.32 g | 81.13% | did not attenuate the nociceptive response | did not attenuate the nociceptive response | 41.6% | 34.5% | 57.5% | 80.9% | 24.24 ± 1.46 s | 42.92% |
| O=C1c2ccccc2C(=O)N1CC(O)CN1CCN(C(c2ccccc2)c2ccccc2)CC1 (centres unmarked) [Compound F4] | 3.98 ± 0.23 g | 38.29% | did not attenuate the nociceptive response | did not attenuate the nociceptive response | 48.3% | – | 29.5% | 42% | did not affect the latency time | – |
